From paper PMC7883873, “Discovery of New Catalytic Topoisomerase II Inhibitors for Anticancer Therapeutics” (Frontiers in Oncology, 2021)

Key:
Format in all cases: cell-based
[1] = tested on: BPH1; experiment: Cell viability, MTS assay; settings: 0-20 µM; compared to AR-positive PCa cell lines
Method: (§1) Cell proliferation rates were measured by using the CellTitre 96 AqueousOne kit (Promega) and bromodeoxyuridine (BrdU) assay kit (Millipore) according to the manufacturer’s protocol as we have described ([51]). Cytotoxicity was evaluated by using the commercial kit (CAT# 8078, ThermoFisher). Culture media was collected and used to measure lactate dehydrogenase (LDH) levels by a colorimetric method following the manufacture’s protocol (ThermoFisher). Cell cycling was assessed by using BrdU incorporation into S-phase DNA by using the APC BrdU flow kit (BD Pharmingen; Franklin Lakes, New Jersey) according to the manufacturer’s protocol. 1 mM of BrdU was added to cells and incubated for 6 h. Cells were incubated with anti-BrdU antibody and stained with 7-AAD before processing the cells for flow cytometry ([52]). Immunoblotting assays followed the standard protocol as we have reported ([51]–[53]).

[2] = tested on: U937 leukemia cells; experiment: Cell viability, MTS assay; settings: T60 alone, up to 20 µM
Method: as §1

[3] = tested on: LNCaP; experiment: Cell viability, MTS assay; settings: 0-20 µM
Method: as §1

[4] = tested on: DU145; experiment: Cell viability, MTS assay; settings: 0-20 µM; compared to AR-positive PCa cell lines
Method: as §1

[5] = tested on: MR49F; experiment: Cell viability, MTS assay; settings: 0-20 µM
Method: as §1

[6] = tested on: LNCaP95; experiment: Cell viability, MTS assay; settings: 0-20 µM
Method: as §1

[7] = tested on: PC3; experiment: Cell viability, MTS assay; settings: 0-20 µM; compared to AR-positive PCa cell lines
Method: as §1

[8] = tested on: NCCIT testicular cells; experiment: Cell viability, MTS assay; settings: T60 alone, up to 20 µM
Method: as §1

[9] = tested on: AR-v7; experiment: Immunoblotting of AR protein levels; settings: LNCaP and LNCaP95 cells, 0-20 µM
Method: as §1

SMILES: O=C(Nc1ccc(Nc2ccccc2)cc1)c1ccc[nH]c1=S [T60]
- Cell viability, BPH1 [1]: to a much less extent
- Inhibition of cell growth, U937 [2]: completely inhibited
- Cell viability, LNCaP [3]: strongly suppressed
- Cell viability, DU145 [4]: to a much less extent
- Cell viability, MR49F [5]: strongly suppressed
- Cell viability, LNCaP95 [6]: strongly suppressed
- Cell viability, PC3 [7]: to a much less extent
- Inhibition of cell growth, NCCIT [8]: 50%
- Protein levels of AR-v7 [9]: inhibited the protein levels
